In US20100292169A1, “METHODS AND COMPOSITIONS FOR REGULATING HDAC6 ACTIVITY” (Duke University, priority 2005, published 2010):
Positions count from the first letter of the chain named. Square brackets hold non-standard residues; d marks the D form. Peptide text beside a SMILES is read from it. * marks the point of attachment. Aoe = N[C@@H](CCCCCC(=O)[C@@H]1CO1)C(=O)O; Cbz = O=C(OCc1ccccc1)*

Key:
[1] = tested on: p60^HOP and p50^cdc37; assay: Rescue of p60HOP and p50cdc37 levels by proteasome inhibition after loss of HDAC6; assay type: cell-based
Excerpt: Since p60^HOP and p50^cdc37 are critical co-chaperones for Hsp90 function, these observations provide further evidence that HDAC6 is required for full Hsp90 chaperone function.

[2] = tested on: Hsp90-p23 interactions; assay: Hsp90-p23 co-immunoprecipitation in A549 cells; assay type: cell-based; settings: treated for 4 hours or HDAC6 siRNA knockdown
Procedure: (§1) Immunoprecipitation and immunostaining. Cells were lysed as described previously (Hubbert et al., 2002). Hsp90 antibody was pre-incubated with rabbit-anti-mouse (Jackson Labs) and Protein-A Sepharose beads (Roche) for 10 minutes. The bead/antibody mix was added to 750 μg of whole cell lysate and incubated at 4° C. for 3 hours. Samples were washed 4 times with 150 mM NETN(Hubbert et al., 2002) and subjected to SDS-PAGE and immunoblotting analysis. Immunolocalization of GR and HDAC6 was described previously (Hubbert et al., 2002).
(§2) Studies were also conducted to identify the molecular basis for the regulation of Hsp90 function via HDAC6-mediated deacetylation. Because the proper folding of GR by Hsp90 depends on the association of Hsp90 with a distinct set of co-chaperones into a chaperone complex (Neckers, 2002; Pratt and Toft, 2003), a determination was made regarding whether Hsp90 acetylation affects Hsp90/co-chaperone assembly. The p23 protein (Johnson and Toft, 1994) is a co-chaperone that stabilizes the Hsp90-GR complex and is critical for GR ligand binding activity in vitro and in vivo (Dittmar et al., 1997; Morishima et al., 2003). Control A549 cells and HDAC6 siRNA knockdown cells (KD) were left untreated or treated for 4 hours with TSA or TPXb. Lysates were immunoprecipitated with α-Hsp90 antibody followed by immunoblotting with α-p23 antibody. […]

[3] = tested on: HDAC members; settings: cited from earlier work
[4] = tested on: Hsp90; assay: Hsp90 acetylation: α-Hsp90 immunoprecipitation, α-AcK immunoblot, in A549 cells; assay type: cell-based
Procedure: as §1
HDAC6 regulates Hsp90 acetylation. To investigate the possibility that HDAC6 functions as an Hsp90 deacetylase, a determination was made regarding whether over-expression of HDAC6 can lead to Hsp90 deacetylation in vivo. […] A basal level of Hsp90 acetylation could be detected in control A549 cell lines. […] The reactions were then subjected to SDS-PAGE and immunoblotted with the indicated antibodies).
Hsp90 hyperacetylation is induced by dexamethasone and correlated with the dissociation of functional […]. Experiments were conducted to determine whether Hsp90 acetylation is regulated by dexamethasone. Control and HDAC6 knockdown A549 cells were cultured in hormone free media for 24 hours, and then stimulated with dexamethasone for the indicated time in hours. […]

[5] = tested on: Hsp90-GR complex; assay: Hsp90-GR co-immunoprecipitation in A549 cells; assay type: cell-based; settings: TSA 4 hours or HDAC6 knockdown
Procedure: as §1, §2

[6] = biological target: glucocorticoid receptor (GR), endogenous, of A549 and 293T cells (human) (UniProt P04150); assay: cell-based or functional assay
[7] = biological target: acetylated (hyperacetylated) Hsp90 from HDAC6 knockdown or TSA-treated cells
[8] = biological target: T1, mouse glucocorticoid receptor (mGR), full length (mouse, UniProt P06537 1-792); assay: immunoadsorption of mGR from wild-type and HDAC6 knockdown 293T cells, immunoblot for coadsorbed p23 (within the GR.hsp90 complex)
T1 construct: stripped of chaperones with 0.5 M NaCl before reconstitution; also called mouse GR
T1 sequence (looked up): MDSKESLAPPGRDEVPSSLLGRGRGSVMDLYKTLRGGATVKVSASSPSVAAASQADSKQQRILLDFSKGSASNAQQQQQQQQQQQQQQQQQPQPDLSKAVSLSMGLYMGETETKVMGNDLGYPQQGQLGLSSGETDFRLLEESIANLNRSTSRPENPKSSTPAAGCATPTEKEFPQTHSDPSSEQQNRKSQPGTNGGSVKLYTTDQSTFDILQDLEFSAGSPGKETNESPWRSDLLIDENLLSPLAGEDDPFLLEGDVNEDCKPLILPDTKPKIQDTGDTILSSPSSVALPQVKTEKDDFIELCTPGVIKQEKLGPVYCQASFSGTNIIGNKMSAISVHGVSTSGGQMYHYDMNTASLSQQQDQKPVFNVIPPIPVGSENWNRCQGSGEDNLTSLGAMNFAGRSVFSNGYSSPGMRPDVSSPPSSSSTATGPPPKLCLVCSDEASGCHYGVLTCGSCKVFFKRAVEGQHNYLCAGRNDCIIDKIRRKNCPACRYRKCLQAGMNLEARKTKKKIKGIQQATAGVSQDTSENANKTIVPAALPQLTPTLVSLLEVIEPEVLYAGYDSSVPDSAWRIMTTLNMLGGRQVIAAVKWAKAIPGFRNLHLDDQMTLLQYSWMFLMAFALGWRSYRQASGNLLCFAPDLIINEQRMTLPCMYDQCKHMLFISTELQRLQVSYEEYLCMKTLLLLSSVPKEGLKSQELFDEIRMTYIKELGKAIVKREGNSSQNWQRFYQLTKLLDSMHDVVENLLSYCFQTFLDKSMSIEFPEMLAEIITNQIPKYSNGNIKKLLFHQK
Excerpt: Because an immunoadsorbing antibody against the human GR was not available, the mouse GR was transiently expressed in HEK cells.

**Q.** For CC(C)C[C@@H](C=O)NC(=O)[C@H](CC(C)C)NC(=O)[C@H](CC(C)C)NC(=O)OCc1ccccc1 [MG132] (Cbz-Leu-Leu-Leu-aldehyde), which “rescue of the reduction of p60^HOP and p50^cdc37” value [1] is on record?
**A.** The value was “partially rescued”.

**Q.** With O=C1N[C@@H](Cc2ccccc2)C(=O)N2CCC[C@@H]2C(=O)N[C@@H](CCCCCC(=O)[C@@H]2CO2)C(=O)N[C@H]1Cc1ccccc1 [TPXb] (cyclo(FF[dP][Aoe])) as the molecule, how does the Hsp90-p23 interactions [2] read?
**A.** The Hsp90-p23 interactions was “had little effect”.

**Q.** What about the HDAC inhibition profile [3] of the same molecule?
**A.** The HDAC inhibition profile was “a potent inhibitor for all HDAC members except HDAC6”.

**Q.** For CC(/C=C/C(=O)NO)=C\[C@@H](C)C(=O)c1ccc(N(C)C)cc1 [trichostatin A], which Hsp90-p23 interactions [2] is on record?
**A.** The Hsp90-p23 interactions was “disrupted Hsp90-p23 interactions”.

**Q.** What about the “level of acetylated Hsp90” value ([4]; A549 cells, treated for 4 hours (TPXb 100 nM) or stably expressing siRNA) of the same molecule?
**A.** Its value is “dramatic rise in the level of acetylated Hsp90”.

**Q.** And the “Hsp90 acetylation in HDAC6 knockdown cells” value ([4]; HDAC6 knockdown A549 cells, TSA treatment)?
**A.** The value was “little effect on Hsp90 acetylation”.

**Q.** And the “Hsp90 and GR interaction” value [5]?
**A.** Its value is “significantly reduced”.

**Q.** Which GR ligand binding activity ([^3H]dexamethasone bound in 293T cytosol) (fold reduction) [6] does the source give for “acetylated (hyperacetylated) Hsp90 from HDAC6 knockdown or TSA-treated cells” here?
**A.** Its GR ligand binding activity ([^3H]dexamethasone bound in 293T cytosol) (fold reduction) is 6.

B1: Flag-HDAC6 (FLAG-tagged wild-type HDAC6) (protein)
chain: MTSTGQDSTTTRQRRSRQNPQSPPQDSSVTSKRNIKKGAVPRSIPNLAEVKKKGKMKKLGQAMEEDLIVGLQGMDLNLEAEALAGTGLVLDEQLNEFHCLWDDSFPEGPERLHAIKEQLIQEGLLDRCVSFQARFAEKEELMLVHSLEYIDLMETTQYMNEGELRVLADTYDSVYLHPNSYSCACLASGSVLRLVDAVLGAEIRNGMAIIRPPGHHAQHSLMDGYCMFNHVAVAARYAQQKHRIRRVLIVDWDVHHGQGTQFTFDQDPSVLYFSIHRYEQGRFWPHLKASNWSTTGFGQGQGYTINVPWNQVGMRDADYIAAFLHVLLPVALEFQPQLVLVAAGFDALQGDPKGEMAATPAGFAQLTHLLMGLAGGKLILSLEGGYNLRALAEGVSASLHTLLGDPCPMLESPGAPCRSAQASVSCALEALEPFWEVLVRSTETVERDNMEEDNVEESEEEGPWEPPVLPILTWPVLQSRTGLVYDQNMMNHCNLWDSHHPEVPQRILRIMCRLEELGLAGRCLTLTPRPATEAELLTCHSAEYVGHLRATEKMKTRELHRESSNFDSIYICPSTFACAQLATGAACRLVEAVLSGEVLNGAAVVRPPGHHAEQDAACGFCFFNSVAVAARHAQTISGHALRILIVDWDVHHGNGTQHMFEDDPSVLYVSLHRYDHGTFFPMGDEGASSQIGRAAGTGFTVNVAWNGPRMGDADYLAAWHRLVLPIAYEFNPELVLVSAGFDAARGDPLGGCQVSPEGYAHLTHLLMGLASGRIILILEGGYNLTSISESMAACTRSLLGDPPPLLTLPRPPLSGALASITETIQVHRRYWRSLRVMKVEDREGPSSSKLVTKKAPQPAKPRLAERMTTREKKVLEAGMGKVTSASFGEESTPGQTNSETAVVALTQDQPSEAATGGATLAQTISEAAIGGAMLGQTTSEEAVGGATPDQTTSEETVGGAILDQTTSEDAVGGATLGQTTSEEAVGGATLAQTTSEAAMEGATLDQTTSEEAPGGTELIQTPLASSTDHQTPPTSPVQGTTPQISPSTLIGSLRTLELGSESQGASESQAPGEENLLGEAAGGQDMADSMLMQGSRGLTDQAIFYAVTPLPWCPHLVAVCPIPAAGLDVTQPCGDCGTIQENWVCLSCYQVYCGRYINGHMLQHHGNSGHPLVLSYIDLSAWCYYCQAYVHHQALLDVKNIAHQNKFGEDMPHPH
**Q.** What does the source list for B1?
**A.** in vitro deacetylation of acetylated Hsp90 (37° C., 60 minutes; α-AcK immunoblot) [7]: immuno-purified wild type but not catalytically inactive mutant HDAC6 can efficiently deacetylate acetylated Hsp90 in vitro; restoration of stable GR.hsp90 heterocomplex assembly activity after incubation with immunopurified FLAG-HDAC6 [7]: The stable heterocomplex assembly activity of purified knockdown cell hsp90 is restored to the level of purified wild-type hsp90 by incubation with immunopurified FLAG-HDAC6

B2: Flag-HDAC6-cat-mut (H216/611A, catalytically inactive mutant) (protein)
chain: B1 chain with H216A, H611A
**Q.** With B2 as the molecule, how does the “in vitro deacetylation of acetylated Hsp90 (37° C., 60 minutes; α-AcK immunoblot)” value [7] read?
**A.** The value was “immuno-purified wild type but not catalytically inactive mutant HDAC6 can efficiently deacetylate acetylated Hsp90 in vitro”.

B3: p23 protein (Hsp90 co-chaperone), endogenous, of A549 and 293T cells (other, UniProt Q15185 1-160, looked up)
chain: MQPASAKWYDRRDYVFIEFCVEDSKDVNVNFEKSKLTFSCLGGSDNFKHLNEIDLFHCIDPNDSKHKRTDRSILCCLRKGESGQSWPRLTKERAKLNWLSVDFNNWKDWEDDSDEDMSNFDRFSEMMNNMGGDEDVDLPEVDGADDDSQDSDDEKMPDLE
**Q.** Does B3 bind [8]?
**A.** Result: binds
